Columns and labels:
Histamine H3 receptor = Histamine H3 receptor (Homo sapiens, UniProt Q9Y5N1); test: Binding affinity to histamine H3 receptor (unknown origin) by competition binding assay
[1] = biological target: 5-hydroxytryptamine receptor 2B (Homo sapiens, UniProt P41595); test: Binding affinity to 5-HT 2B (unknown origin) by competition binding assay
[2] = biological target: T1, Alpha-2A adrenergic receptor (Homo sapiens, UniProt P08913); test: Binding affinity to alpha-2A adrenergic receptor (unknown origin) by competition binding assay
T1 sequence (P08913 whole entry): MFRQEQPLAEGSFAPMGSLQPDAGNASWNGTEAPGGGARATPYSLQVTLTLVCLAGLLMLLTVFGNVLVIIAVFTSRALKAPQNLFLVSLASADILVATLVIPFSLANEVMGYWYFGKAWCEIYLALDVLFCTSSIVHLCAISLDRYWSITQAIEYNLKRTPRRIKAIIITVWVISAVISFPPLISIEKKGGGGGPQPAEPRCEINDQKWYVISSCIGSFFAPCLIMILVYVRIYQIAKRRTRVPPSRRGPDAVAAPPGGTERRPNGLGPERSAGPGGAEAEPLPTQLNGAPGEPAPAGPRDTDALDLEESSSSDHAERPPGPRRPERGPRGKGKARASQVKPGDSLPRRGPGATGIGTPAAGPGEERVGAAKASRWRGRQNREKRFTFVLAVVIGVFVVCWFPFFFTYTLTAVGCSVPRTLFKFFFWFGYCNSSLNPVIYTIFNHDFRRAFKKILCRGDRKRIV

[3] = biological target: Sigma non-opioid intracellular receptor 1 (Homo sapiens, UniProt Q99720); test: Binding affinity to sigma 1 receptor (unknown origin) by competition binding assay
Sequence of Sigma non-opioid intracellular receptor 1 (Q99720 whole entry): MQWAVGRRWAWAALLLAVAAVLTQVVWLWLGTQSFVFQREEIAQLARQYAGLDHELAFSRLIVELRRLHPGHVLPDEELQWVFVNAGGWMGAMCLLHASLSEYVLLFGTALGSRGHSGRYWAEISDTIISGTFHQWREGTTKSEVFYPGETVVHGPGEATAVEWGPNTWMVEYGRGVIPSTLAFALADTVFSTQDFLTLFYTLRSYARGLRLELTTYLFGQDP

[4] = biological target: T2, Alpha-1D adrenergic receptor (Homo sapiens, UniProt P25100); test: Binding affinity to alpha-1D adrenergic receptor (unknown origin) by competition binding assay
T2 sequence (P25100 whole entry): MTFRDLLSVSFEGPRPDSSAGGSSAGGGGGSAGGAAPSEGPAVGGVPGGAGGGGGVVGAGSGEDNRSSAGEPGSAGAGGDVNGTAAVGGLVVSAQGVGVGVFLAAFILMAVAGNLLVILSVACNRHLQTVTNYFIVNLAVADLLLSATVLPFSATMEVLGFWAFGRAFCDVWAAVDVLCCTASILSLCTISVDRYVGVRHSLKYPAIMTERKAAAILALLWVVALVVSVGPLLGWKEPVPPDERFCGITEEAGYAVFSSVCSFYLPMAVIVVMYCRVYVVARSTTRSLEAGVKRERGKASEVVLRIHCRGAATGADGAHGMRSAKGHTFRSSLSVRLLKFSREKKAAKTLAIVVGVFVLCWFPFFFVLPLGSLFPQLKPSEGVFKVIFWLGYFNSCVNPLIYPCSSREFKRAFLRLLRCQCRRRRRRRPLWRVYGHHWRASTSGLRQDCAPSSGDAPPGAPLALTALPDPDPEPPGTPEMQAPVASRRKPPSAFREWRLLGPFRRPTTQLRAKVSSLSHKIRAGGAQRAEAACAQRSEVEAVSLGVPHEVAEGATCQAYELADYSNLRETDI

[5] = biological target: 5-hydroxytryptamine receptor 6 (Homo sapiens, UniProt P50406); test: Binding affinity to 5-HT 6 (unknown origin) by competition binding assay
Sequence of 5-hydroxytryptamine receptor 6 (P50406 whole entry): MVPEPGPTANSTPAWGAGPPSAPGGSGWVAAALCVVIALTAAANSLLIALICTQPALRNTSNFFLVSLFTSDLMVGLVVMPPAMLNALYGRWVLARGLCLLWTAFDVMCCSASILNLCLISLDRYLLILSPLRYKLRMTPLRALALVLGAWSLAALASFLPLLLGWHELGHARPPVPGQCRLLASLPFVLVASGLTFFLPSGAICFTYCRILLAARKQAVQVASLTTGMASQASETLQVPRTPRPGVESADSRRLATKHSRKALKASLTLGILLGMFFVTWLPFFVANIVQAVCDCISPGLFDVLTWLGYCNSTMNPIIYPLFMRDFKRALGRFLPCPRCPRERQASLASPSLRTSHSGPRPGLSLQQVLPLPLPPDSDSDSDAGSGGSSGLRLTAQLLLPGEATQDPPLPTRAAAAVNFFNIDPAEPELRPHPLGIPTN

[6] = biological target: 5-hydroxytryptamine receptor 1B (Homo sapiens, UniProt P28222); test: Binding affinity to 5-HT 1B (unknown origin) by competition binding assay
Sequence of 5-hydroxytryptamine receptor 1B (P28222 whole entry): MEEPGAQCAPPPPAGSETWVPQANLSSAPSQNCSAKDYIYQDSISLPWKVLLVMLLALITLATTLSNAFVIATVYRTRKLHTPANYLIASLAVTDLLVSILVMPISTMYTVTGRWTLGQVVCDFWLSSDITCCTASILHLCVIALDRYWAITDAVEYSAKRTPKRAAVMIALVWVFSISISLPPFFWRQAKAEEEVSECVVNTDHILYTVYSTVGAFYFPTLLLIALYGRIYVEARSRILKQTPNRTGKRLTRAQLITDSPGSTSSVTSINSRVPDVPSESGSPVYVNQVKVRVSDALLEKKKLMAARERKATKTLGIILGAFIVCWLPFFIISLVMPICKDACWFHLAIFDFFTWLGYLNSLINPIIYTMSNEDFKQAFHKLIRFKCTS

[7] = biological target: Sodium-dependent dopamine transporter (Homo sapiens, UniProt Q01959); test: Binding affinity to DAT (unknown origin) by competition binding assay
Sequence of Sodium-dependent dopamine transporter (Q01959 whole entry): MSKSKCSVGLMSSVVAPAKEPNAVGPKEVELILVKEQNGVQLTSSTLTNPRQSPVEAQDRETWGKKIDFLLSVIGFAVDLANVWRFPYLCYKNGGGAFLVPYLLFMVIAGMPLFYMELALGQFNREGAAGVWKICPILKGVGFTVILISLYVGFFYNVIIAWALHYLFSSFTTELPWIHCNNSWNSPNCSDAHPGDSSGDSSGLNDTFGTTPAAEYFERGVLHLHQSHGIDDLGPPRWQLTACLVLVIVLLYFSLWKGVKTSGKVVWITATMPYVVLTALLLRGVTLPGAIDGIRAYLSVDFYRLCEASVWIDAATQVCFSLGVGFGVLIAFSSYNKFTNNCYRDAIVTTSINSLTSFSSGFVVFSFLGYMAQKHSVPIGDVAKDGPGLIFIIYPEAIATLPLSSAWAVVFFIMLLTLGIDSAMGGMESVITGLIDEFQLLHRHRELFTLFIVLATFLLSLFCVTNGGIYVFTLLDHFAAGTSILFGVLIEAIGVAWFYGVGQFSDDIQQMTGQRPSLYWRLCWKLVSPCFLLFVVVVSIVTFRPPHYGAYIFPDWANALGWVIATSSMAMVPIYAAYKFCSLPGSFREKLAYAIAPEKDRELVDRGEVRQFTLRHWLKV

Histamine H1 receptor = Histamine H1 receptor (Homo sapiens, UniProt P35367); test: Binding affinity to histamine H1 receptor (unknown origin) by competition binding assay
Sequence of Histamine H1 receptor (P35367 whole entry): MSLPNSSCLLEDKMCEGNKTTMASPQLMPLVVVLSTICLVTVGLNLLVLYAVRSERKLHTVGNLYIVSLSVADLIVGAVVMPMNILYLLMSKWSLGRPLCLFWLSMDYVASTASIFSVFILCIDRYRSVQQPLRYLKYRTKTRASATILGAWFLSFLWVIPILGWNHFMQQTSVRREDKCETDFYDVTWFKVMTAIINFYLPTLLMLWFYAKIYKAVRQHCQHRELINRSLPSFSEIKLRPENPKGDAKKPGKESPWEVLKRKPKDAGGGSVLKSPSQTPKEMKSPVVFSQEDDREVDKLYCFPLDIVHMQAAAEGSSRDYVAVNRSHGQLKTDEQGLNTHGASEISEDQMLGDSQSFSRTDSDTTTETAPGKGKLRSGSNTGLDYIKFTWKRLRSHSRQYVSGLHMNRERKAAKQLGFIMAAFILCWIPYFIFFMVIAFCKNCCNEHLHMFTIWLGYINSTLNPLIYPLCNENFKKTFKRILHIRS

[8] = biological target: Alpha-2B adrenergic receptor (Homo sapiens, UniProt P18089); test: Binding affinity to alpha-2B adrenergic receptor (unknown origin) by competition binding assay
Sequence of Alpha-2B adrenergic receptor (P18089 whole entry): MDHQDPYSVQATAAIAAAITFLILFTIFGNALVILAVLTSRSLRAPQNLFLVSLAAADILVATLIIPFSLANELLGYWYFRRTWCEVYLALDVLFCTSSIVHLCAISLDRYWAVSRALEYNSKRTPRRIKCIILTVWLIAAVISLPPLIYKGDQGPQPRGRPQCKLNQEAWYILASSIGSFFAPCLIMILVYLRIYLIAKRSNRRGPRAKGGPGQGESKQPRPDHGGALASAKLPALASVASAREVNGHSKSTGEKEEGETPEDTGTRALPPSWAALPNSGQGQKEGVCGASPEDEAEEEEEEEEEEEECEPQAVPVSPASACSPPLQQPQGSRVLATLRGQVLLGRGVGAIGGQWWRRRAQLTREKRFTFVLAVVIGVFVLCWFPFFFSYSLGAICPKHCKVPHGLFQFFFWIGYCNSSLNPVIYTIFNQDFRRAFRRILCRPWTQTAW

[9] = Binding affinity to sigma 2 receptor (unknown origin) by competition binding assay; parameters: species or system Homo sapiens
[10] = biological target: T3, 5-hydroxytryptamine receptor 1A (Homo sapiens, UniProt P08908); test: Binding affinity to 5-HT 1A (unknown origin) by competition binding assay
T3 sequence (P08908 whole entry): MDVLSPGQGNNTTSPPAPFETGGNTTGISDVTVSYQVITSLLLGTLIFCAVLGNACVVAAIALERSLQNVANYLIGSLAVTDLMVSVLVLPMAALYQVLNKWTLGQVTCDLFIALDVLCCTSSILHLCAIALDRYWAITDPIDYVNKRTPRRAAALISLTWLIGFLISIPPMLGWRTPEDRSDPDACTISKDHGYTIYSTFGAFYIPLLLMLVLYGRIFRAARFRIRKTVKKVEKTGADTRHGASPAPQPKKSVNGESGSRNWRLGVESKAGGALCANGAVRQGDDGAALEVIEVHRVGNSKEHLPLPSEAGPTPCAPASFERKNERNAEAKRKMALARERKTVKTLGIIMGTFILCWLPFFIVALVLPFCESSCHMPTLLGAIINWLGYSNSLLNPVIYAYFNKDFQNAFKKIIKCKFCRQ

[11] = biological target: Sodium-dependent serotonin transporter (Homo sapiens, UniProt P31645); test: Binding affinity to SERT (unknown origin) by competition binding assay
Sequence of Sodium-dependent serotonin transporter (P31645 whole entry): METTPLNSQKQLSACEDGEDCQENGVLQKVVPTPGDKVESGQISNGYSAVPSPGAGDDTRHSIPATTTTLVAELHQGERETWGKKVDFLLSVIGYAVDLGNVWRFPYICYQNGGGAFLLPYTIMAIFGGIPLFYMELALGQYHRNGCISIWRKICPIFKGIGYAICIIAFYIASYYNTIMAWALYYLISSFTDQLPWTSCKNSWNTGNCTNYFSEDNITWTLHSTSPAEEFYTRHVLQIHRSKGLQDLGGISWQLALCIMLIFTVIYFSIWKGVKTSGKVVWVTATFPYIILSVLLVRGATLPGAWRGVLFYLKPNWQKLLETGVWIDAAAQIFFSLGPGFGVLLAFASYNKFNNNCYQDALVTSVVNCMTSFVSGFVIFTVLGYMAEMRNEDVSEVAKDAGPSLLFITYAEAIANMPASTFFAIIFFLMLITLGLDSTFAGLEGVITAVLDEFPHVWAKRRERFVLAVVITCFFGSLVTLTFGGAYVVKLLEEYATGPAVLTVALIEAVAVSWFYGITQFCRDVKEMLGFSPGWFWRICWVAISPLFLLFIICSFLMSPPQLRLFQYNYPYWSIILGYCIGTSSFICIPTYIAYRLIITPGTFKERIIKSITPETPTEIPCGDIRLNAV

Sequence of 5-hydroxytryptamine receptor 2B (P41595 whole entry): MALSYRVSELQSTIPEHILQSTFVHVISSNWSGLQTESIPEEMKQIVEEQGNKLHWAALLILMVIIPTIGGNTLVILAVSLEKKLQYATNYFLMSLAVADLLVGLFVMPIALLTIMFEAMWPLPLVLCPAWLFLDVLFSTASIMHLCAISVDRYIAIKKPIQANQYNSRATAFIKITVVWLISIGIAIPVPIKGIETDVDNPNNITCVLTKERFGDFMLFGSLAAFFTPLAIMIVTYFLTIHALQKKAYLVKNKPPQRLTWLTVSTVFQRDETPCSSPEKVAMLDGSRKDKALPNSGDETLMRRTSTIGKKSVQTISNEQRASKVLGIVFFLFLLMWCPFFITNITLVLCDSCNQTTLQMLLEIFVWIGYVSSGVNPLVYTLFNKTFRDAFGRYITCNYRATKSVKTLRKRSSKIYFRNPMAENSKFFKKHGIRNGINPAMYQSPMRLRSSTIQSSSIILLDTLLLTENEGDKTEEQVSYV
Sequence of Histamine H3 receptor (Q9Y5N1 whole entry): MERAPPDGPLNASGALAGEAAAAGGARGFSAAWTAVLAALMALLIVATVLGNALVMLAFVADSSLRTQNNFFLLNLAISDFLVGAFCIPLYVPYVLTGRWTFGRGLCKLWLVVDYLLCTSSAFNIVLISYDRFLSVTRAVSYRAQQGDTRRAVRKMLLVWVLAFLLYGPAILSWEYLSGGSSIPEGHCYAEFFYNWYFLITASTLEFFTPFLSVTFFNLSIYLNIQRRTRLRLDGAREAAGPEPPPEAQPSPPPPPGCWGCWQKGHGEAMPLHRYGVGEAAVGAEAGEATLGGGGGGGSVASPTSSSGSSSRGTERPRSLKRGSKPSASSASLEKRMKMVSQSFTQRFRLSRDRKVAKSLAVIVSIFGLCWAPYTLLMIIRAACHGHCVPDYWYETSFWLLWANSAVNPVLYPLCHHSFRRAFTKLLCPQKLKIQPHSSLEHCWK

| Compound | pKi (Histamine H3 receptor) | Ki ([1]; read-out: Ki) [nM] | Ki ([1]; read-out: pKi (converted)) [nM] | Ki ([2]; read-out: Ki) [nM] | Ki ([2]; read-out: pKi (converted)) [nM] | Ki ([3]; read-out: Ki) [nM] | Ki ([3]; read-out: pKi (converted)) [nM] | Ki [4] [µM] | Ki ([5]; read-out: Ki) [nM] | Ki ([5]; read-out: pKi (converted)) [nM] | Ki [7] [nM] | Ki (Histamine H1 receptor; read-out: Ki) [nM] | Ki (Histamine H1 receptor; read-out: pKi (converted)) [nM] | Ki ([10]; read-out: Ki) [nM] | Ki ([10]; read-out: pKi (converted)) [nM] | Ki [11] [nM] | further results |
| --- | --- | --- | --- | --- | --- | --- | --- | --- | --- | --- | --- | --- | --- | --- | --- | --- | --- |
| C=CCN(CC=C)CCc1c[nH]c2ccccc12 | > 5 | < 10000 | 61.7 | < 10000 | 123 | < 10000 | 100 | < 10 | < 10000 | 1740 | 1260 | < 10000 | 126 | < 10000 | 100 | 151 | pKi [6]: > 5; Ki ([8]; read-out: Ki): < 10000 nM; Ki ([8]; read-out: pKi (converted)): 302 nM; Ki [9]: < 10 µM; pKi [9]: 6.45 |
| C=CCN(CC=C)CCc1c[nH]c2ccc(C)cc12 | > 5 | < 10000 | 60.3 | < 10000 | 195 | < 10000 | 74.1 | < 10 | < 10000 | 741 | 3160 | < 10000 | 676 | < 10000 | 31.6 | 363 | Ki [6]: 1350 nM |

— ChEMBL document CHEMBL3751848, “Receptor binding profiles and quantitative structure-affinity relationships of some 5-substituted-N,N-diallyltryptamines” (Bioorg Med Chem Lett, 2016)
